Reference: ChEMBL document CHEMBL5584282, “The New Frontier in Neurotherapeutics: From Brain Stimulation to Novel Psychotropics” (ACS Med Chem Lett, 2024)
Calls of active or inactive are those of the source. The calls are words filed in the database; no cut-off is given here.

Columns and labels:
Format in all cases: functional, cell-based
Cortical neurone [1] = assay: Neuroplasticity effect in Wistar rat brain cortical neuron assessed as neurite outgrowth by measuring increase in neurite length at <=10 uM incubated for 72 hrs by DAPI staining based imaging analysis
Cortical neurone [2] = assay: Neuroplasticity effect in Wistar rat brain cortical neuron assessed as neurite outgrowth by measuring increase in neurite branching at <=10 uM incubated for 72 hrs by DAPI staining based imaging analysis
Cortical neurone [3] = assay: Neuroplasticity effect in Wistar rat brain cortical neuron assessed as neurite outgrowth by measuring increase in neurite number at <=10 uM incubated for 72 hrs by DAPI staining based imaging analysis

SMILES | Activity (Cortical neurone [1]) | Activity (Cortical neurone [2]) | Activity (Cortical neurone [3])
FC(F)(F)Oc1cccc2sc3c(c12)CCN(C1CCC1)CC3 | Active | Active | Active
COc1ccc2c3c(sc2c1)CCNCC3 | Active | Active | Active
COc1ccc2c3c(oc2c1)CCCN(CC(F)(F)F)C3 | Active | Active | Active
COc1cccc2oc3c(c12)CCN(C1CCC1)CC3 | Active | Active | Active
COc1ccc2c3c(oc2c1)CCCN(C)C3 | Active | Active | Active
Fc1ccc2c3c(oc2c1)CCCNC3 | Active | Active | Active
Fc1cccc2oc3c(c12)CN(CC(F)(F)F)CCC3 | Active | Active | Active
COc1cccc2oc3c(c12)CCNCC3 | inactive | inactive | inactive
FC(F)(F)CN1CCc2sc3ccccc3c2CC1 | Active | Active | inactive
Fc1cccc2oc3c(c12)CN(C1CCC1)CCC3 | Active | Active | Active
Fc1cccc2oc3c(c12)CCN(C1CCC1)CC3 | Active | inactive | Active
COc1cccc2oc3c(c12)CN(C1CCC1)CCC3 | inactive | inactive | inactive
COc1ccc2c3c(oc2c1)CCCN(C1CCC1)C3 | Active | Active | Active
CN1CCc2oc3cccc(F)c3c2CC1 | Active | Active | inactive
CN1CCCc2oc3cccc(F)c3c2C1 | Active | Active | Active
